# Data taken from PubChem BioAssay (NCI).
#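 At the GI50, growth is halved. The concentration for full growth arrest is given as TGI.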
# Key:
# Experiment in all cases: growth of human tumour cells (NCI), 384-well format
# IGROV1 ovarian = system: IGROV1 ovarian
# OVCAR-3 ovarian = system: OVCAR-3 ovarian
# LOX IMVI melanoma = system: LOX IMVI melanoma
# NCI-H226 lung = system: NCI-H226 lung
# KM12 colon = system: KM12 colon
# HOP-92 NSCLC = system: HOP-92 NSCLC
# OVCAR-8 ovarian = system: OVCAR-8 ovarian
# U251 glioblastoma = system: U251 glioblastoma
# SF-268 CNS = system: SF-268 CNS
# HT29 colon = system: HT29 colon
# NCI-H322M lung = system: NCI-H322M lung
# MCF7 breast = system: MCF7 breast
# NCI-H522 lung = system: NCI-H522 lung
# HCT-116 colon = system: HCT-116 colon
# TK-10 renal = system: TK-10 renal
# A498 renal = system: A498 renal
# T-47D breast = system: T-47D breast
# MALME-3M melanoma = system: MALME-3M melanoma
# A549 NSCLC = system: A549 NSCLC
# MDA-MB-435 melanoma = system: MDA-MB-435 melanoma
# OVCAR-5 ovarian = system: OVCAR-5 ovarian
# SK-MEL-5 melanoma = system: SK-MEL-5 melanoma
# COLO 205 colon = system: COLO 205 colon
# SNB-75 CNS = system: SNB-75 CNS
# PC-3 prostate = system: PC-3 prostate
# ACHN renal = system: ACHN renal
# HCT-15 colon = system: HCT-15 colon
# OVCAR-4 ovarian = system: OVCAR-4 ovarian
# UACC-62 melanoma = system: UACC-62 melanoma
# HS 578T breast = system: HS 578T breast
# SK-MEL-28 melanoma = system: SK-MEL-28 melanoma
# MDA-MB-231 breast = system: MDA-MB-231 breast
# UO-31 renal = system: UO-31 renal
# SK-MEL-2 melanoma = system: SK-MEL-2 melanoma
# SN12C renal = system: SN12C renal
# SNB-19 CNS = system: SNB-19 CNS
# SW-620 colon = system: SW-620 colon
# UACC-257 melanoma = system: UACC-257 melanoma
# HCC-2998 colon = system: HCC-2998 colon
# CAKI-1 renal = system: CAKI-1 renal
# SF-295 CNS = system: SF-295 CNS
# K-562 leukemia = system: K-562 leukemia
# EKVX NSCLC = system: EKVX NSCLC
# SK-OV-3 ovarian = system: SK-OV-3 ovarian
smiles,measurement,setting,value
Nc1ccn(C2OC(CO)C(O)C2(F)F)c(=O)n1 (configuration not stated),TGI,IGROV1 ovarian,> 100000 nM
same,TGI,OVCAR-3 ovarian,> 100000 nM
same,TGI,LOX IMVI melanoma,33 nM
same,GI50,NCI-H226 lung,< 16.2 nM
same,TGI,NCI-H226 lung,73.4 nM
same,GI50,KM12 colon,15.3 nM
same,TGI,KM12 colon,> 100000 nM
same,GI50,HOP-92 NSCLC,40.7 nM
same,TGI,HOP-92 NSCLC,> 33100 nM
same,TGI,OVCAR-8 ovarian,< 33.5 nM
same,TGI,U251 glioblastoma,25.2 nM
same,TGI,SF-268 CNS,18.5 nM
same,GI50,HT29 colon,< 11.2 nM
same,TGI,HT29 colon,3040 nM
same,GI50,NCI-H322M lung,1090 nM
same,TGI,NCI-H322M lung,> 100000 nM
same,TGI,MCF7 breast,> 100000 nM
same,TGI,NCI-H522 lung,5710 nM
same,TGI,HCT-116 colon,> 36900 nM
same,TGI,TK-10 renal,> 100000 nM
same,TGI,A498 renal,> 100000 nM
same,GI50,T-47D breast,552 nM
same,TGI,T-47D breast,> 100000 nM
same,TGI,MALME-3M melanoma,> 22100 nM
same,TGI,A549 NSCLC,> 100000 nM
same,GI50,MDA-MB-435 melanoma,301 nM
same,TGI,MDA-MB-435 melanoma,> 100000 nM
same,GI50,OVCAR-5 ovarian,48.1 nM
same,TGI,OVCAR-5 ovarian,> 100000 nM
same,TGI,SK-MEL-5 melanoma,< 16.8 nM
same,GI50,COLO 205 colon,27.7 nM
same,TGI,COLO 205 colon,140 nM
same,GI50,SNB-75 CNS,< 15.5 nM
same,TGI,SNB-75 CNS,< 30.5 nM
same,GI50,PC-3 prostate,> 100000 nM
same,TGI,PC-3 prostate,> 100000 nM
same,TGI,ACHN renal,< 10.8 nM
same,TGI,HCT-15 colon,> 100000 nM
same,GI50,OVCAR-4 ovarian,> 100000 nM
same,TGI,OVCAR-4 ovarian,> 100000 nM
same,TGI,UACC-62 melanoma,19.4 nM
same,GI50,HS 578T breast,< 33.3 nM
same,TGI,HS 578T breast,> 40800 nM
same,TGI,SK-MEL-28 melanoma,> 100000 nM
same,GI50,MDA-MB-231 breast,95.7 nM
same,TGI,UO-31 renal,< 21.3 nM
same,TGI,SK-MEL-2 melanoma,15300 nM
same,GI50,SN12C renal,18.5 nM
same,TGI,SN12C renal,64.9 nM
same,TGI,SNB-19 CNS,517 nM
same,GI50,SW-620 colon,< 15.8 nM
same,TGI,SW-620 colon,> 100000 nM
same,GI50,UACC-257 melanoma,< 18.3 nM
same,TGI,HCC-2998 colon,> 100000 nM
same,TGI,CAKI-1 renal,173 nM
same,GI50,SF-295 CNS,< 14.6 nM
same,TGI,SF-295 CNS,25.4 nM
same,TGI,K-562 leukemia,> 100000 nM
same,GI50,EKVX NSCLC,8710 nM
same,TGI,EKVX NSCLC,> 100000 nM
same,GI50,SK-OV-3 ovarian,31.8 nM
same,TGI,SK-OV-3 ovarian,> 100000 nM
